# Measurements as given in ChEMBL document CHEMBL4334501, “A drug repurposing screening reveals a novel epigenetic activity of hydroxychloroquine” (Eur J Med Chem, 2019).
# Calls of active or inactive are those of the source. No cut-off for these calls is given here.
# Columns and labels:
# [1] = molecular target: Polycomb protein EED (Homo sapiens) (UniProt O75530); test: Inhibition of EED subunit of PRC2 complex in human MM1S cells assessed as reduction in H3K27me3 expression after 24 hrs by Western blot analysis; format: cell-based
# [2] = molecular target: Polycomb protein EED (Homo sapiens) (UniProt O75530); test: Inhibition of HA-tagged human EED subunit of PRC2 complex expressed in human MM1S cells assessed as reduction in transfected EED cDNA vector-induced H3K27me3 overexpression at 10 uM after 24 hrs by Western blot analysis; format: cell-based
# Chain of Polycomb protein EED (Homo sapiens) (O75530 2-441 limits assumed): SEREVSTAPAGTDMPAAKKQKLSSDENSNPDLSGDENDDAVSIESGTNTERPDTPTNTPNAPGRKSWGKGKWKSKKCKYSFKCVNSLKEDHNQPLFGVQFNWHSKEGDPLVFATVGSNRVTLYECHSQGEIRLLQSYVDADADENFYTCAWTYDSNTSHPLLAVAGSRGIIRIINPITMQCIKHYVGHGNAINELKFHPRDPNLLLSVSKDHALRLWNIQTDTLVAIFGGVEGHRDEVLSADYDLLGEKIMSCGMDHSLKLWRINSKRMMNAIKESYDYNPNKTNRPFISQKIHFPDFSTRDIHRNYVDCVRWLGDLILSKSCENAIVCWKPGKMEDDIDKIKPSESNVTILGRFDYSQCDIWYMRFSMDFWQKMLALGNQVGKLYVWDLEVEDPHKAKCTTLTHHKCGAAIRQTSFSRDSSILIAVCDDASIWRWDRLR
smiles,measurement,setting,value
CCN(CCO)CCCC(C)Nc1ccnc2cc(Cl)ccc12 (configuration not stated),inhibition,[1],Dose-dependent effect
same,inhibition,[2],Active
